Laboratory results taken from patent US10966978B2, “Dose and regimen for HDM2-p53 interaction inhibitors” (Novartis AG, priority 2016, dated 2021).
Like-named read-outs stand apart in the source and are kept apart here.

Test system: patients with advanced TP53 wild-type (WT) leukemias

COc1ncc(-c2nc3c(n2C(C)C)[C@H](c2ccc(Cl)cc2)N(c2cc(Cl)cn(C)c2=O)C3=O)c(OC)n1 [HDM201, (S)-5-(5-Chloro-1-methyl-2-oxo-1,2-dihydro-pyridin-3-yl)-6-(4-chloro-phenyl)-2-(2,4-dimethoxy-pyrimidin-5-yl)-1-isopropyl-5,6-dihydro-1H-pyrrolo[3,4-d]imidazol-4-one]
3 (18.8) n (%): AE: Lipase Increased (Regimen 1A N = 16, All Grades) | AE: Pyrexia (Regimen 1A N = 16, All Grades)
10 (62.5) n (%): AE: Nausea (Regimen 1A N = 16, All Grades)
7 (43.8) n (%): AE: Tumour Lysis Syndrome (Regimen 1A N = 16, All Grades)
4 (25.0) n (%): AE: Fatigue (Regimen 1A N = 16, All Grades) | AE: Febrile Neutropenia (Regimen 1A N = 16, All Grades) | AE: Anaemia (Regimen 1A N = 16, Grade 3/4) | AE: Febrile Neutropenia (Regimen 1A N = 16, Grade 3/4)
2 (12.5) n (%): AE: Gamma-Glutamyltransferase Increased (Regimen 1A N = 16, All Grades) | AE: General Physical Health Deterioration (Regimen 1A N = 16, All Grades) | AE: Gingival Bleeding (Regimen 1A N = 16, All Grades) | AE: Hyperuricaemia (Regimen 1A N = 16, All Grades) | AE: Hypocalcaemia (Regimen 1A N = 16, All Grades) | AE: Hypophosphataemia (Regimen 1A N = 16, All Grades) | AE: Leukopenia (Regimen 1A N = 16, All Grades) | AE: Mouth Haemorrhage (Regimen 1A N = 16, All Grades) | AE: Hypophosphataemia (Regimen 1A N = 16, Grade 3/4)
5 (31.3) n (%): AE: Vomiting (Regimen 1A N = 16, All Grades)
6 (37.5) n (%): AE: Neutropenia/Neutrophil Count Decreased (Regimen 1A N = 16, All Grades)
0 n (%): AE: Hyperkalaemia (Regimen 1A N = 16, All Grades) | AE: Hypokalaemia (Regimen 1A N = 16, All Grades) | AE: Infective Glossitis (Regimen 1A N = 16, All Grades) | AE: Macular Oedema (Regimen 1A N = 16, All Grades) | AE: Pancytopenia (Regimen 1A N = 16, All Grades) | AE: Rectal Haemorrhage (Regimen 1A N = 16, All Grades) | AE: Renal Failure (Regimen 1A N = 16, All Grades) | AE: Abdominal Discomfort (Regimen 1A N = 16, Grade 3/4) | AE: Abdominal Pain (Regimen 1A N = 16, Grade 3/4) | AE: Abdominal Pain Upper (Regimen 1A N = 16, Grade 3/4) | AE: Acute Kidney Injury (Regimen 1A N = 16, Grade 3/4) | AE: Amylase Increased (Regimen 1A N = 16, Grade 3/4) | AE: Arthralgia (Regimen 1A N = 16, Grade 3/4) | AE: Asthenia (Regimen 1A N = 16, Grade 3/4) | AE: Atrial Fibrillation (Regimen 1A N = 16, Grade 3/4) | AE: Atypical Pneumonia (Regimen 1A N = 16, Grade 3/4) | AE: Balanitis Candida (Regimen 1A N = 16, Grade 3/4) | AE: Blood Alkaline Phosphatase Increased (Regimen 1A N = 16, Grade 3/4) | AE: Blood Bilirubin Increased (Regimen 1A N = 16, Grade 3/4) | AE: Blood Creatinine Increased (Regimen 1A N = 16, Grade 3/4) | AE: Blood Phosphorus Increased (Regimen 1A N = 16, Grade 3/4) | AE: Bone Marrow Failure (Regimen 1A N = 16, Grade 3/4) | AE: C-Reactive Protein Increased (Regimen 1A N = 16, Grade 3/4) | AE: Cardiac Failure (Regimen 1A N = 16, Grade 3/4) | AE: Cellulitis (Regimen 1A N = 16, Grade 3/4) | AE: Conjunctival Haemorrhage (Regimen 1A N = 16, Grade 3/4) | AE: Constipation (Regimen 1A N = 16, Grade 3/4) | AE: Cough (Regimen 1A N = 16, Grade 3/4) | AE: Cystitis Viral (Regimen 1A N = 16, Grade 3/4) | AE: Cytomegalovirus Infection (Regimen 1A N = 16, Grade 3/4) | AE: Decreased Appetite (Regimen 1A N = 16, Grade 3/4) | AE: Diarrhoea (Regimen 1A N = 16, Grade 3/4) | AE: Dyspepsia (Regimen 1A N = 16, Grade 3/4) | AE: Epistaxis (Regimen 1A N = 16, Grade 3/4) | AE: Fatigue (Regimen 1A N = 16, Grade 3/4) | AE: General Physical Health Deterioration (Regimen 1A N = 16, Grade 3/4) | AE: Gingival Bleeding (Regimen 1A N = 16, Grade 3/4) | AE: Graft Versus Host Disease (Regimen 1A N = 16, Grade 3/4) | AE: Haemoglobin Decreased (Regimen 1A N = 16, Grade 3/4) | AE: Headache (Regimen 1A N = 16, Grade 3/4) | AE: Hyperbilirubinaemia (Regimen 1A N = 16, Grade 3/4) | AE: Hyperglycaemia (Regimen 1A N = 16, Grade 3/4) | AE: Hyperkalaemia (Regimen 1A N = 16, Grade 3/4) | AE: Hyperphosphataemia (Regimen 1A N = 16, Grade 3/4) | AE: Hypoalbuminaemia (Regimen 1A N = 16, Grade 3/4) | AE: Hypocalcaemia (Regimen 1A N = 16, Grade 3/4) | AE: Hypokalaemia (Regimen 1A N = 16, Grade 3/4) | AE: Hypomagnesaemia (Regimen 1A N = 16, Grade 3/4) | AE: Hyponatraemia (Regimen 1A N = 16, Grade 3/4) | AE: Hypotension (Regimen 1A N = 16, Grade 3/4) | AE: Infective Glossitis (Regimen 1A N = 16, Grade 3/4)
1 (6.3) n (%): AE: Graft Versus Host Disease (Regimen 1A N = 16, All Grades) | AE: Haemoglobin Decreased (Regimen 1A N = 16, All Grades) | AE: Headache (Regimen 1A N = 16, All Grades) | AE: Hyperbilirubinaemia (Regimen 1A N = 16, All Grades) | AE: Hyperglycaemia (Regimen 1A N = 16, All Grades) | AE: Hyperphosphataemia (Regimen 1A N = 16, All Grades) | AE: Hypoalbuminaemia (Regimen 1A N = 16, All Grades) | AE: Hypomagnesaemia (Regimen 1A N = 16, All Grades) | AE: Hyponatraemia (Regimen 1A N = 16, All Grades) | AE: Hypotension (Regimen 1A N = 16, All Grades) | AE: Infection (Regimen 1A N = 16, All Grades) | AE: Iron Overload (Regimen 1A N = 16, All Grades) | AE: Lip Oedema (Regimen 1A N = 16, All Grades) | AE: Malaise (Regimen 1A N = 16, All Grades) | AE: Oedema (Regimen 1A N = 16, All Grades) | AE: Oral Disorder (Regimen 1A N = 16, All Grades) | AE: Pain In Extremity (Regimen 1A N = 16, All Grades) | AE: Pneumonia (Regimen 1A N = 16, All Grades) | AE: Pollakiuria (Regimen 1A N = 16, All Grades) | AE: Rash (Regimen 1A N = 16, All Grades) | AE: Rash Erythematous (Regimen 1A N = 16, All Grades) | AE: Rash Papular (Regimen 1A N = 16, All Grades) | AE: Skin Exfoliation (Regimen 1A N = 16, All Grades) | AE: Stomatitis (Regimen 1A N = 16, All Grades) | AE: Subarachnoid Haemorrhage (Regimen 1A N = 16, All Grades) | AE: Weight Decreased (Regimen 1A N = 16, All Grades) | AE: White Blood Cell Count Decreased (Regimen 1A N = 16, All Grades) | AE: Blood Uric Acid Increased (Regimen 1A N = 16, Grade 3/4) | AE: Chronic Graft Versus Host Disease (Regimen 1A N = 16, Grade 3/4) | AE: Dyspnoea (Regimen 1A N = 16, Grade 3/4) | AE: Gamma-Glutamyltransferase Increased (Regimen 1A N = 16, Grade 3/4) | AE: Hyperuricaemia (Regimen 1A N = 16, Grade 3/4) | AE: Infection (Regimen 1A N = 16, Grade 3/4)
15 (93.8) n (%): AE: Total (Regimen 1A N = 16, All Grades)
8 (50.0) n (%): AE: Thrombocytopenia/Platelet Count Decreased (Regimen 1A N = 16, All Grades)
